Test results reported in US9023789B2, “Amylin analogs and pharmaceutical compositions thereof” (Novo Nordisk A/S, priority 2012, dated 2015).
pIC50: −log10 of the molar value. Numbered stars: 1 amine (or outer) side, 2 acyl side, 3 side chain; on linkers, the order of the positions; unused ones are H or OH. Bridge positions count the residues as written; N and C are the ends. Side chains are listed from the residue outwards. Peptide text beside a SMILES is read from it. * marks the point of attachment. C20 diacid = O=C(O)CCCCCCCCCCCCCCCCCCC(=O)*; γGlu = O=C(O)[C@H](CCC(=O)[*:2])N[*:1]

How the values were obtained:
[1] = ASSAY (III) ThT fibrillation assay for physical stability; type: physicochemical
Summary of the method: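 Physical stability scored by ThT fluorescence (444 nm excitation, 485 nm emission) tracked every 20 min during 37 °C incubation with 960 rpm shaking, ThT at 1 μM final. Values are replicate means with SD at chosen times; HPLC against pramlintide standard gives initial and post-assay soluble concentrations.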

[2] = target: T1, human amylin receptor (membranes from Amylin 3(a)/CRE-luc cells) (Homo sapiens, UniProt O60896+P30988); assay: ASSAY (V) binding to the human amylin receptor (SPA, 125I-rat amylin);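 further: competition binding of cell membranes (35 ng/µL) mixed with SPA beads in 384-well plates at 40 µL total volume, read by scintillation counting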
T1 construct: expressed in transfected cells
T1 sequence (P30988 25-474): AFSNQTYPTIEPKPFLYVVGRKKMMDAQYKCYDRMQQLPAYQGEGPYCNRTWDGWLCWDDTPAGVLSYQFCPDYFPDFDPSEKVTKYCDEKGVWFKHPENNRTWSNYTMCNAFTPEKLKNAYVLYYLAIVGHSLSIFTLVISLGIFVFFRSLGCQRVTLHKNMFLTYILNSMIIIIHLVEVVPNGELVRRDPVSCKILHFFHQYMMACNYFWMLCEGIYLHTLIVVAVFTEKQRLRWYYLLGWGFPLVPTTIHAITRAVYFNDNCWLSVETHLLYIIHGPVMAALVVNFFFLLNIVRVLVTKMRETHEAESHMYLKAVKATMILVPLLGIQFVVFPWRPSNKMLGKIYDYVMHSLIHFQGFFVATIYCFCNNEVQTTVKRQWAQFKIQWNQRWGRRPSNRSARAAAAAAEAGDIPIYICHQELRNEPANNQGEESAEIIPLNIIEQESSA
T1 sequence (O60896 24-148 partner): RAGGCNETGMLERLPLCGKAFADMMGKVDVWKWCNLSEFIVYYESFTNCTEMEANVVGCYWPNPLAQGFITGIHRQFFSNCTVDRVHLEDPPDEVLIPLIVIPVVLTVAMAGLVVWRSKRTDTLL

rat calcitonin receptor = target: T2, rat calcitonin receptor (Rattus norvegicus, UniProt P32214); assay: ASSAY (VIII) binding to the rat calcitonin receptor; conditions: Table 7, read-out: rCTR bind IC50
T2 construct: expressed in transfected cells; host or cells: BHK tk'ts 13 (transient, FuGENE 6), membranes
T2 sequence (P32214 25-479 isoform P32214-2 limits assumed): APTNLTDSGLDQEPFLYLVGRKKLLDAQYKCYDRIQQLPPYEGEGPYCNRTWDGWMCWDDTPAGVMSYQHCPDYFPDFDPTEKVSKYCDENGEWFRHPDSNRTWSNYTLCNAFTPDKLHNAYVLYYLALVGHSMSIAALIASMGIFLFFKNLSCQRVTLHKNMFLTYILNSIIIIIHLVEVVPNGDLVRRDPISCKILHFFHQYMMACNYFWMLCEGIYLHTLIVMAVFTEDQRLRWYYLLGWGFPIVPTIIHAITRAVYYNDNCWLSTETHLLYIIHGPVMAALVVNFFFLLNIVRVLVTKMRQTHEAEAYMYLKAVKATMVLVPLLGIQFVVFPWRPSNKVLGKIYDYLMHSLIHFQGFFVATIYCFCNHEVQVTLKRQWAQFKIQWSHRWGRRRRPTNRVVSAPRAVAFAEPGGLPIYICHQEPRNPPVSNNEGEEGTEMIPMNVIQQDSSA
Summary of the method: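 Receptor source: membranes from transiently transfected BHK tk′ts 13 cells expressing rat calcitonin receptor, collected roughly 48 hours after transfection.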

[3] = Table 5, selectivity, hCTR bind IC50 / hAmylin-R bind IC50
[4] = Table 5a, selectivity, hCTR bind IC50 / hAmylin-R bind IC50
[5] = Table 5b, selectivity, hCTR bind IC50 / hAmylin-R bind IC50
[6] = Table 5c, selectivity, hCTR bind IC50 / hAmylin-R bind IC50
[7] = Table 7, human binding selectivity, included for comparison
[8] = Table 7a (preferred compounds), human binding selectivity, included for comparison
[9] = ratio of human calcitonin receptor binding IC50 to human amylin receptor binding IC50

ThT pH 4.0 lag time (h) [1] | Ratio hCT/hAmylin binding [2, 3] | Ratio hCT/hAmylin binding [2, 4] | Ratio hCT/hAmylin binding [2, 5] | Ratio hCT/hAmylin binding [2, 6] | Ratio hCT/hAmylin binding [2, 7] | Ratio hCT/hAmylin binding [2, 8] | Ratio hCT/hAmylin binding [2, 9] | pIC50 (rat calcitonin receptor) | Structure (SMILES)
33 h | 65.3 | 65.3 | 65.3 | 65.3 | 65.3 | 65.3 | 65.3 | 6.51 | CC[C@H](C)[C@H](NC(=O)[C@H](C)NC(=O)CNC(=O)[C@H](Cc1ccccc1)NC(=O)[C@H](CC(N)=O)NC(=O)[C@@H]1CCCN1C(=O)[C@H](CO)NC(=O)[C@H](CO)NC(=O)[C@H](Cc1c[nH]cn1)NC(=O)[C@H](CCCNC(=N)N)NC(=O)[C@H](CC(C)C)NC(=O)[C@H](Cc1ccccc1)NC(=O)[C@H](Cc1c[nH]cn1)NC(=O)[C@H](C)NC(=O)[C@H](CC(C)C)NC(=O)[C@H](CCCNC(=N)N)NC(=O)[C@H](CCC(N)=O)NC(=O)[C@@H](NC(=O)[C@H](C)NC(=O)[C@@H]1CSSC[C@H](NC(=O)[C@H](CCCNC(=N)N)NC(=O)CNC(=O)CC[C@H](NC(=O)CCCCCCCCCCCCCCCCCCC(=O)O)C(=O)O)C(=O)N[C@@H](CC(N)=O)C(=O)N[C@@H]([C@@H](C)O)C(=O)N[C@@H](C)C(=O)N[C@@H]([C@@H](C)O)C(=O)N1)[C@@H](C)O)C(=O)N1CCC[C@H]1C(=O)N[C@@H](CO)C(=O)N[C@@H](CO)C(=O)N[C@H](C(=O)N[C@@H](CC(N)=O)C(=O)N[C@H](C(=O)NCC(=O)N[C@@H](Cc1c[nH]cn1)C(=O)N[C@@H](CC(N)=O)C(=O)N[C@H](C(=O)N[C@@H](Cc1ccc(O)cc1)C(N)=O)[C@@H](C)O)C(C)C)[C@@H](C)O [Example 100] ({C20 diacid-γGlu}-GRCNTATCATQRLAHFLRHSSPNFGAIPSSTNVGHNTY-NH2; disulfide 3-8 (inferred))
3 h | 22.6 | 22.6 | 22.6 | 22.6 | 22.6 | 22.6 | 22.6 | 7.47 | CC[C@H](C)[C@H](NC(=O)[C@H](C)NC(=O)CNC(=O)[C@H](Cc1ccccc1)NC(=O)[C@H](CC(N)=O)NC(=O)[C@@H]1CCCN1C(=O)[C@H](CO)NC(=O)[C@H](CO)NC(=O)[C@H](Cc1c[nH]cn1)NC(=O)[C@H](CCCNC(=N)N)NC(=O)[C@H](CC(C)C)NC(=O)[C@H](Cc1ccccc1)NC(=O)[C@H](CCC(=O)O)NC(=O)[C@H](C)NC(=O)[C@H](CC(C)C)NC(=O)[C@H](CCCNC(=N)N)NC(=O)[C@H](CCC(N)=O)NC(=O)[C@@H](NC(=O)[C@H](C)NC(=O)[C@@H]1CSSC[C@H](NC(=O)[C@@H](N)CCCCNC(=O)CC[C@H](NC(=O)CC[C@H](NC(=O)CCCCCCCCCCCCCCCCCCC(=O)O)C(=O)O)C(=O)O)C(=O)N[C@@H](CC(N)=O)C(=O)N[C@@H]([C@@H](C)O)C(=O)N[C@@H](C)C(=O)N[C@@H]([C@@H](C)O)C(=O)N1)[C@@H](C)O)C(=O)N[C@@H](CC(C)C)C(=O)N[C@@H](CO)C(=O)N[C@@H](CO)C(=O)N[C@H](C(=O)N1CCC[C@H]1C(=O)N[C@H](C(=O)NCC(=O)N1CCC[C@H]1C(=O)N[C@@H](CCC(=O)O)C(=O)N[C@H](C(=O)N[C@@H](Cc1ccc(O)cc1)C(N)=O)[C@@H](C)O)C(C)C)[C@@H](C)O [Example 121] (H-K([γGlu-γGlu-C20 diacid])CNTATCATQRLAEFLRHSSPNFGAILSSTPVGPETY-NH2; disulfide 2-7; N-terminus assumed)
0 h | 7.8 | – | – | – | 7.8 | 7.8 | – | 7.06 | CC[C@H](C)[C@H](NC(=O)[C@H](C)NC(=O)CNC(=O)[C@@H]1CCCN1C(=O)[C@H](CC(N)=O)NC(=O)[C@H](CC(N)=O)NC(=O)[C@H](CO)NC(=O)[C@H](CO)NC(=O)[C@H](Cc1c[nH]cn1)NC(=O)[C@H](CCCNC(=N)N)NC(=O)[C@H](CC(C)C)NC(=O)[C@H](Cc1ccccc1)NC(=O)[C@H](CCC(=O)O)NC(=O)[C@H](C)NC(=O)[C@H](CC(C)C)NC(=O)[C@H](CCCNC(=N)N)NC(=O)[C@H](CCC(N)=O)NC(=O)[C@@H](NC(=O)[C@H](C)NC(=O)[C@@H]1CSSC[C@H](NC(=O)[C@@H](N)CCCCNC(=O)CC[C@H](NC(=O)CC[C@H](NC(=O)CCCCCCCCCCCCCCCCCCC(=O)O)C(=O)O)C(=O)O)C(=O)N[C@@H](CC(N)=O)C(=O)N[C@@H]([C@@H](C)O)C(=O)N[C@@H](C)C(=O)N[C@@H]([C@@H](C)O)C(=O)N1)[C@@H](C)O)C(=O)N[C@@H](CC(C)C)C(=O)N[C@@H](CO)C(=O)N[C@@H](CO)C(=O)N[C@H](C(=O)N[C@@H](CC(N)=O)C(=O)N[C@H](C(=O)NCC(=O)N1CCC[C@H]1C(=O)N[C@@H](CCC(=O)O)C(=O)N[C@H](C(=O)N[C@@H](Cc1ccc(O)cc1)C(N)=O)[C@@H](C)O)C(C)C)[C@@H](C)O [Example 126] (H-K([γGlu-γGlu-C20 diacid])CNTATCATQRLAEFLRHSSNNPGAILSSTNVGPETY-NH2; disulfide 2-7 (inferred); N-terminus assumed)
